In ChEMBL document CHEMBL3745645, “Synthesis, in vitro antitumor activity, dihydrofolate reductase inhibition, DNA intercalation and structure-activity relationship studies of 1,3,5-triazine analogues” (Bioorg Med Chem Lett, 2016):
Activity calls are given as the source filed them. No cut-off for these calls is given here.

Key:
[1] = Cytotoxicity against human SF268 cells at 10 uM after 48 hrs by SRB assay; type: functional; details: SF-268, 48 h, read-out: GI
[2] = test system: NCI-H23; assay: Cytotoxicity against human NCI-H23 cells at 10 uM after 48 hrs by SRB assay; type: functional; details: NCI-H23, 48 h, read-out: GI
[3] = Cytotoxicity against human OVCAR8 cells at 10 uM after 48 hrs by SRB assay; type: functional; details: OVCAR-8, 48 h, read-out: GI
[4] = test system: MDA-MB-435; assay: Cytotoxicity against human MDA-MB-435 cells at 10 uM after 48 hrs by SRB assay; type: functional; details: MDA-MB-435, 48 h, read-out: GI
[5] = (§1) Cytotoxicity against human HCC2998 cells at 10 uM after 48 hrs by SRB assay; type: functional; details: HCC 2998, 48 h, read-out: GI
[6] = test system: HCT-15; assay: (§2) Cytotoxicity against human HCT15 cells at 10 uM after 48 hrs by SRB assay; type: functional
[7] = test system: SF-295; assay: (§3) Cytotoxicity against human SF295 cells at 10 uM after 48 hrs by SRB assay; type: functional
[8] = test system: MDA-MB-468; assay: Cytotoxicity against human MDA-MB-468 cells at 10 uM after 48 hrs by SRB assay; type: functional; details: for inhibition of growth at 10 µM: MDA-MB-468, 48 h, read-out: GI
[9] = Cytotoxicity against human HCT116 cells at 10 uM after 48 hrs by SRB assay; type: functional; details: HCT-116, 48 h, read-out: GI
[10] = test system: 786-0; assay: Cytotoxicity against human 786-0 cells at 10 uM after 48 hrs by SRB assay; type: functional; details: for inhibition of growth at 10 µM: 786-0, 48 h, read-out: GI
[11] = test system: K562; assay: Cytotoxicity against human K562 cells at 10 uM after 48 hrs by SRB assay; type: functional; details: K562, 48 h, read-out: GI
[12] = (§4) Cytotoxicity against human RPMI8226 cells at 10 uM after 48 hrs by SRB assay; type: functional; details: RPMI-8226, 48 h, read-out: GI
[13] = test system: NCI-H322M; assay: Cytotoxicity against human NCI-H322M cells at 10 uM after 48 hrs by SRB assay; type: functional; details: read-out: GI
[14] = Cytotoxicity against human PC3 cells at 10 uM after 48 hrs by SRB assay; type: functional; details: PC-3, 48 h, read-out: GI
[15] = Cytotoxicity against human DU145 cells after 48 hrs by SRB assay; type: functional; details: DU-145, 48 h, read-out: LC50 (the source's name)
[16] = test system: Calf thymus DNA; assay: Binding affinity to calf thymus DNA assessed as melting temperature by spectrophotometric analysis (reference value: 60 degC); type: nucleic-acid assay; details: Bos taurus
[17] = test system: K562; assay: Cytotoxicity against human K562 cells after 48 hrs by SRB assay; type: functional; details: K562, 48 h
[18] = (§5) Cytotoxicity against human OVCAR4 cells at 10 uM after 48 hrs by SRB assay; type: functional; details: OVCAR-4, 48 h, read-out: GI
[19] = Cytotoxicity against human COLO205 cells after 48 hrs by SRB assay; type: functional; details: COLO 205, 48 h, pooled result: one value given for 7 cell lines, strains, targets or settings
[20] = test system: NCI-H460; assay: Cytotoxicity against human NCI-H460 cells at 10 uM after 48 hrs by SRB assay; type: functional; details: NCI-H460, 48 h, read-out: GI
[21] = test system: 786-0; assay: Cytotoxicity against human 786-0 cells after 48 hrs by SRB assay; type: functional; details: 786-0, 48 h, pooled result: one value given for 8 cell lines, strains, targets or settings
[22] = test system: CCRF-CEM; assay: Cytotoxicity against human CCRF-CEM cells at 10 uM after 48 hrs by SRB assay; type: functional
[23] = (§6) Cytotoxicity against human BT549 cells at 10 uM after 48 hrs by SRB assay; type: functional; details: BT-549, 48 h, read-out: GI
[24] = Cytotoxicity against human OVCAR3 cells at 10 uM after 48 hrs by SRB assay; type: functional; details: OVCAR-3, 48 h, read-out: GI
[25] = target: T1, Dihydrofolate reductase (Homo sapiens, UniProt P00374); assay: Inhibition of human recombinant DHFR expressed in Escherichia coli by spectrophotometric analysis
T1 sequence (P00374 whole entry): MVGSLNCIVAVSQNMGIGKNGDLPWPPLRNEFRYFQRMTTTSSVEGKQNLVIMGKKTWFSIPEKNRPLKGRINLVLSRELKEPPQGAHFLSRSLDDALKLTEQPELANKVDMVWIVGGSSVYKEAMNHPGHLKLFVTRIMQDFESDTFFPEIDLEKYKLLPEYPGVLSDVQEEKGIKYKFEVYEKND

[26] = Cytotoxicity against human RXF393 cells at 10 uM after 48 hrs by SRB assay; type: functional; details: RXF 393, 48 h, read-out: GI
[27] = test system: UACC-257; assay: (§7) Cytotoxicity against human UACC257 cells at 10 uM after 48 hrs by SRB assay; type: functional
[28] = test system: UACC-62; assay: Cytotoxicity against human UACC62 cells at 10 uM after 48 hrs by SRB assay; type: functional
[29] = Cytotoxicity against human Hs 578T cells at 10 uM after 48 hrs by SRB assay; type: functional; details: read-out: GI
[30] = test system: HT-29; assay: Cytotoxicity against human HT-29 cells at 10 uM after 48 hrs by SRB assay; type: functional
[31] = (§8) Cytotoxicity against human TK10 cells at 10 uM after 48 hrs by SRB assay; type: functional; details: TK-10, 48 h, read-out: GI
[32] = Cytotoxicity against human SKOV3 cells at 10 uM after 48 hrs by SRB assay; type: functional; details: SK-OV-3, 48 h, read-out: GI
[33] = test system: LOX IMVI; assay: Cytotoxicity against human LOXIMVI cells at 10 uM after 48 hrs by SRB assay; type: functional
[34] = test system: SK-MEL-2; assay: Cytotoxicity against human SK-MEL-2 cells at 10 uM after 48 hrs by SRB assay; type: functional
[35] = test system: HCC 2998; assay: as §1; type: functional
[36] = test system: COLO 205; assay: Cytotoxicity against human COLO205 cells at 10 uM after 48 hrs by SRB assay; type: functional
[37] = test system: RPMI-8226; assay: as §4; type: functional
[38] = Cytotoxicity against human NCI-ADR-RES cells at 10 uM after 48 hrs by SRB assay; type: functional; details: read-out: GI
[39] = test system: OVCAR-4; assay: as §5; type: functional
[40] = test system: UO-31; assay: Cytotoxicity against human UO31 cells at 10 uM after 48 hrs by SRB assay; type: functional
[41] = test system: BT-549; assay: as §6; type: functional
[42] = test system: HL-60(TB); assay: Cytotoxicity against human HL-60(TB) cells at 10 uM after 48 hrs by SRB assay; type: functional
[43] = test system: TK-10; assay: as §8; type: functional
[44] = test system: MOLT-4; assay: Cytotoxicity against human MOLT4 cells at 10 uM after 48 hrs by SRB assay; type: functional
[45] = as §2; type: functional; details: HCT-15, 48 h, read-out: GI
[46] = as §3; type: functional; details: SF-295, 48 h, read-out: GI
[47] = as §7; type: functional; details: UACC-257, 48 h, read-out: GI

SMILES: Cc1nc2ccc(Nc3nc(NCCN4CCOCC4)nc(Nc4ccc(F)cc4)n3)cc2n1Cc1ccccc1
- inhibition of growth at 10 µM [1]: 37.2%
- inhibition of growth at 10 µM [2]: 33%
- inhibition of growth at 10 µM [3]: 49.9%
- inhibition of growth at 10 µM [4]: 47.8%
- inhibition of growth at 10 µM [5]: 55.4%
- growth inhibition (GI) [6]: Active
- growth inhibition (GI) [7]: Active
- inhibition of growth at 10 µM [8]: 86%
- inhibition of growth at 10 µM [9]: 72.1%
- inhibition of growth at 10 µM [10]: 95.8%
- inhibition of growth at 10 µM [11]: 97%
- inhibition of growth at 10 µM [12]: 96.9%
- inhibition of growth at 10 µM [13]: 35.9%
- inhibition of growth at 10 µM [14]: 28.5%
- CC50 [15]: 62.5 µM
- Tm [16]: 80.1 °C
- LC50 [17]: 55 µM
- inhibition of growth at 10 µM [18]: 1.85%
- GI50 [19]: 2.6 µM
- LC50 [19]: 24 µM
- TGI [19]: 8.51 µM
- inhibition of growth at 10 µM [20]: 70.6%
- GI50 [21]: 3.03 µM
- LC50 (concentration killing 50% of cells) [21]: 14.6 µM
- TGI [21]: 19.3 µM
- inhibition of growth at 10 µM ([22]; read-out: GI): 70.5%
- inhibition of growth at 10 µM [23]: 50.1%
- inhibition of growth at 10 µM [24]: 26.3%
- IC50 [25]: 0.002 µM
- inhibition of growth at 10 µM [26]: 88%
- growth inhibition (GI) [27]: Active
- growth inhibition (GI) [28]: Active
- inhibition of growth at 10 µM [29]: 59.4%
- growth inhibition (GI) [30]: Active
- inhibition of growth at 10 µM [31]: 39.4%
- inhibition of growth at 10 µM [32]: 21%

SMILES: Cc1nc2cc(Nc3nc(Nc4ccc(F)cc4)nc(N4CCN(C)CC4)n3)ccc2n1Cc1ccccc1
- inhibition of growth at 10 µM [1]: 85.4%
- growth inhibition (GI) [33]: Active
- growth inhibition (GI) [34]: Active
- inhibition of growth at 10 µM [3]: 99.4%
- inhibition of growth at 10 µM [4]: 99.8%
- growth inhibition (GI) [35]: Active
- growth inhibition (GI) [6]: Active
- growth inhibition (GI) [36]: Active
- growth inhibition (GI) [7]: Active
- growth inhibition (GI) [8]: Active
- growth inhibition (GI) [10]: Active
- inhibition of growth at 10 µM [11]: 99.6%
- growth inhibition (GI) [37]: Active
- inhibition of growth at 10 µM [14]: 80.3%
- inhibition of growth at 10 µM [38]: 56.9%
- CC50 [15]: 20.5 µM
- Tm [16]: 65.6 °C
- LC50 [17]: 8.47 µM
- growth inhibition (GI) [39]: Active
- growth inhibition (GI) [40]: Active
- GI50 [19]: 1.66 µM
- LC50 [19]: 7.15 µM
- TGI [19]: 3.44 µM
- inhibition of growth at 10 µM [20]: 96.6%
- GI50 [21]: 1.77 µM
- LC50 (concentration killing 50% of cells) [21]: 9.66 µM
- TGI [21]: 3.81 µM
- growth inhibition (GI) [22]: Active
- growth inhibition (GI) [41]: Active
- growth inhibition (GI) [42]: Active
- IC50 [25]: 0.31 µM
- growth inhibition (GI) [27]: Active
- growth inhibition (GI) [28]: Active
- growth inhibition (GI) [30]: Active
- growth inhibition (GI) [43]: Active
- inhibition of growth at 10 µM [32]: 31.3%

SMILES: COc1ccc(-c2nc(Nc3ccc(F)cc3)nc(Nc3ccc4c(c3)nc(C)n4Cc3ccccc3)n2)cc1
- inhibition of growth at 10 µM [1]: 53.1%
- growth inhibition (GI) [44]: Active
- inhibition of growth at 10 µM ([34]; SK-MEL-2, 48 h, read-out: GI): 51.8%
- inhibition of growth at 10 µM [3]: 82.1%
- inhibition of growth at 10 µM [4]: 65.9%
- inhibition of growth at 10 µM [5]: 54.5%
- inhibition of growth at 10 µM [45]: 66.6%
- inhibition of growth at 10 µM [46]: 51%
- inhibition of growth at 10 µM [8]: 71.6%
- inhibition of growth at 10 µM [9]: 76.6%
- inhibition of growth at 10 µM [10]: 53.3%
- inhibition of growth at 10 µM [11]: 83.4%
- growth inhibition (GI) [37]: Active
- inhibition of growth at 10 µM [13]: 17.6%
- inhibition of growth at 10 µM [38]: 73.4%
- CC50 [15]: > 100 µM
- Tm [16]: 67.5 °C
- LC50 [17]: > 100 µM
- inhibition of growth at 10 µM [18]: 57.4%
- GI50 [19]: 3.52 µM
- LC50 [19]: 18.2 µM
- TGI [19]: 14.4 µM
- inhibition of growth at 10 µM [20]: 69.7%
- GI50 [21]: 3.4 µM
- LC50 (concentration killing 50% of cells) [21]: > 100 µM
- TGI [21]: 27.7 µM
- growth inhibition (GI) [22]: Active
- inhibition of growth at 10 µM [23]: 29.3%
- inhibition of growth at 10 µM [24]: 49.5%
- growth inhibition (GI) [42]: Active
- IC50 [25]: 0.32 µM
- inhibition of growth at 10 µM [26]: 64.3%
- inhibition of growth at 10 µM [47]: 56.2%
- inhibition of growth at 10 µM [29]: 45.5%
- inhibition of growth at 10 µM ([30]; HT-29, 48 h, read-out: GI): 91.1%
- inhibition of growth at 10 µM [31]: 25.1%
- inhibition of growth at 10 µM [32]: 23.2%
